B1: G7-FLT3L dendrimers: FLT3L-conjugated Generation 7 (G7) PAMAM dendrimers, Cy5.5-labelled, targeting FLT3 on AML cells (conjugate)
chain: TQDCSFQHSPISSDFAVKIRELSDYLLQDYPVTVASNLQDEELCGGLWRLVLAQRWMERLKTVAGSKMQGLLERVNTEIHFVTKCAFQPPPSCLRFVQTNISRLLQETSEQLVALKPWITRQNFSRCLELQCQPDSSTLPPPWSPRPLEATAPTA

Legend:
THP-1 cells = experiment: ATRA-treatment study, gene expression (qPCR) in THP-1 cells; type: cell-based, human; conditions: 1 μM ATRA, 72 hours, vs DMSO
Experimental: Total RNA was extracted with the miRNeasy extraction kit (Qiagen, Valencia, Calif.) and was used as template to synthesize cDNA for quantitative RT-PCR (qPCR) analysis in a 7900HT real-time PCR system (Applied Biosystems, Foster City, Calif.). TaqMan qPCR assay was performed to validate the differential expression patterns of miR-22 using commercial kits from Applied Biosystems (Cat. #4427975). Sequences for the controls are: sno202: 5′-[…]-3′ (SEQ ID NO: 1); RNU6B: 5′-[…]-3′ (SEQ ID NO: 4). qPCR with SYBR Green dye (Qiagen) was used to determine expression of mRNA genes. snoRNA202, RNU48, Gapdh or GAPDH were used as endogenous controls for qPCR of miRNA and mRNA, respectively. Each sample was run in triplicate. qPCR primers are available upon request. For determining the miR-22 DNA locus copy number, TaqMan qPCR assay was used as described previously^57.
(§1) For the ATRA-treatment study, THP-1 cells were seeded at a concentration of 0.4×10^6/mL and treated with ATRA (1 μmol/L) or vehicle control (DMSO, 0.001%) for 72 hours before cells were collected for RNA analysis or CUP assays.

miR-22 promoter region = experiment: ChIP-qPCR of miR-22 promoter region in ATRA-treated THP-1 cells; type: cell-based, human; conditions: 1 μM ATRA, 72 hours
Experimental: as §1
ChIP assay was performed, as described previously^14, 17, with SABiosciences Corporation's ChampionChiP™ One-Day kit (Qiagen, Frederick, Md.) following the manufacturer's protocol, with some modifications. Briefly, pellets of 5×10^6 cells were treated with fresh fixing buffer (1% formaldehyde) for 10 min at 37° C. to crosslink DNA and proteins. The reaction was terminated by the addition of stop buffer and incubated at room temperature for 5 min. After cell lysis, the cross-linked chromatin was sonicated to an average size of ˜500 bp and was immunoprecipitated with antibodies against TET1, GFI1 (Santa Cruz Biotechnology Inc., Santa Cruz, Calif.), the N′-terminal portion of MLL (MLL-N), the C′-terminal of MLL (MLL-C), H3K27Me3, H3K4Me3, RNA polymerase II, EZH2, SIN3A or IgG (Abcam, Cambridge, Mass.). Purified ChIP DNA was amplified by real-time qPCR using specific primers targeting the CpG-enriched upstream region of human miR-22: Forward: 5′-GTT GTT GGA GTC GTG AGT G-3′ (SEQ ID NO: 15); reverse: 5′-CGC TCC ACC TTT CCT TAA A-3′ (SEQ ID NO: 16); or mouse miR-22: Forward: 5′-TGA ATG GGC GGG AGT AA-3′ (SEQ ID NO: 17); reverse: 5′-CCAC GAG CTG CGA ATG AA-3′ (SEQ ID NO: 18).

miR-22 promoter = experiment: Bisulfite sequencing of miR-22 promoter in ATRA-treated THP-1 cells; type: cell-based, human; conditions: 1 μM ATRA or DMSO, 72 hrs
MONOMAC-6 cells [1] = experiment: Cellular uptake of dendrimers in MONOMAC-6 cells; type: cell-based, human
From the text: (§2) In order to selectively deliver miR-22 oligos to FLT3-expressing AML cells, Poly(amidoamine) (PAMAM) dendrimers (Hong S, et al. Bioconjugate Chemistry. 2006; 17:728-34, Hong S, et al. Bioconjugate Chemistry. 2009; 20:1503-13, and Sunoqrot S, et al. J Control Release. 2014; 191:115-22, incorporated herein by reference) are selected as the basis of the nanoparticle carriers, and conjugated with the near-infrared dye Cyanine 5.5 (Cy5.5) for monitoring the dynamic distributions of the nanoparticles, and FLT3 ligand (FLT3L) proteins for specific targeting FLT3 on the cell surface. H2B, a nuclear histone protein with similar molecular weight as FLT3L, was conjugated as a negative control. G7-FLT3L dendrimers will efficiently and selectively target AML cells with FLT3 overexpression.

U937 cells = experiment: Cellular uptake of dendrimers in U937 cells; type: cell-based; conditions: U937 cells (very low levels of FLT)
From the text: as §2

MONOMAC-6 cells [2] = experiment: Viability and apoptosis of MONOMAC-6 cells treated with dendrimers; type: cell-based, human; conditions: compared with PBS

Row | Molecule | WDR81 level (THP-1 cells) | expression of TET1, EZH2 and SIN3A (THP-1 cells) | expression of TET2 or TET3 (down-regulation) (THP-1 cells) | increase in miR-22 expression level (THP-1 cells) | transcription level of GFI1 (THP-1 cells) | H3K4Me3 modifications at miR-22 promoter region (miR-22 promoter region) | H3K27me3 modifications at miR-22 promoter region (miR-22 promoter region) | RNA polymerase II occupancy at miR-22 promoter region (miR-22 promoter region) | binding of GFI1, TET1, EZH2 and SIN3A to the miR-22 promoter region (miR-22 promoter region) | binding of MLL protein to the miR-22 promoter region (reduction) (miR-22 promoter region) | methylation status of the miR-22 promoter (miR-22 promoter) | one-hour uptake ratio (MONOMAC-6 cells [1]; FLT3-overexpressing AML cells, one hour) [%] | uptake ratio after suppression of endogenous FLT3 expression (MONOMAC-6 cells [1]; MONOMAC-6 cells overexpressing miR-22) | uptake ratio after 24 hours' treatment (MONOMAC-6 cells [1]; MONOMAC-6 cells, 24 hours, G7-FLT3L vs G7-H2B control) | uptake ratios, G7-FLT3L vs G7-H2B (U937 cells) | viability and apoptosis (cytotoxicity) (MONOMAC-6 cells [2])
1 | CC1=C(/C=C/C(C)=C/C=C/C(C)=C/C(=O)O)C(C)(C)CCC1 [ATRA, all-trans-retinoic acid] | no significant effects | significantly down-regulated | not | more than 5 fold | substantially reduced | no significant change | significantly decreased | increased | remarkably reduced | not | hypomethylated |  |  |  |  | 
2 | B1 |  |  |  |  |  |  |  |  |  |  |  | 23.6 | significant decrease | significantly higher | no significant difference | low, if any, cytotoxicity
